Assay results taken from paper PMC3419191, “Identification of Novel Piperazinylquinoxaline Derivatives as Potent Phosphoinositide 3-Kinase (PI3K) Inhibitors” (PLoS ONE, 2012).
pIC50: −log10 of the molar value.

Experiments:
PC3 cells [1] = experiment: Apoptosis assay in PC3 cells by flow cytometry (PI); format: cell-based, human; settings: 24 h, control 1.71%
Method: Piperazinylquinoxaline derivative 41 was further tested for its ability to induce apoptosis in PC3 cells. […] (Fig. 5). With an apoptotic percent of 1.71% of the control, the percent of apoptotic PC3 cells induced by compound 41 and GDC0941 in 5 µM after treatment of 24 h were 4.48% and 3.12%, respectively.
Figure 5 Apoptosis induction of compound 41 and GDC0941 in PC3 cells. After treatment with 41 and GDC0941 (5 or 10 µM) for 24 h, PC3 cells were harvested and detected of apoptosis by flow cytometry using PI apoptosis detection kit. Vertical axes stand for the counts of relative number of PC3 cells; horizontal axes stand for the relative fluorescence light intensity measured as pulse-area (FL2-A). TEXT PRINTED IN THE PICTURE: Compound 41: Apo:4.48% (5μM); Apo:32.83% (10μM) | GDC0941: Apo:3.12% (5μM); Apo:5.65% (10μM)
(§1) For flow cytometry analysis, PC3 cells were treated with DMSO, compound 41 and GDC0941 for 24 h. Cells were washed twice with PBS and fixed in 75% ethanol at −20°C. The cell pellet was resuspended in 100 µL of PBS containing […] RNase (Amerson, Solon, OH, USA), then incubated at 37°C for 0.5 h. After incubation, the cells were stained with 20 mL/L propidium iodide (PI, Sigma, St. Louis, MO, USA) at 4°C for 15 min. The fluorescence of cell was measured with FACSCalibur flow cytometer (Becton-Dickinson, Lincoln Park, NJ, USA).

PC3 cells [2] = experiment: Cell cycle arrest in PC3 cells by flow cytometry; format: cell-based, human; settings: 24 h; for cell cycle arrest: 2 and 4 µM
Method: Moreover, flow cytometric analysis was performed to determine whether target compounds could induce cell cycle arrest in PC3 cells. GDC0941 was used as the positive control. PC3 cells were treated with compound 41 and GDC0941 in two different concentrations (2 and 4 µM) for 24 h, the results are presented as Figure 6.
Figure 6 Cell cycle arrest test of compound 41 and GDC0941 in PC3 cells. Vertical axes stand for the counts of relative number of PC3 cells; horizontal axes stand for the relative fluorescence light intensity measured as pulse-area (FL2-A). TEXT PRINTED IN THE PICTURE: Compound 41: G1: 53.77 % (2μM); G2: 16.76 % (2μM); S: 29.48 % (2μM); G1: 54.38 % (4μM); G2: 15.87 % (4μM); S: 29.75 % (4μM) | GDC0941: G1: 63.66 % (2μM); G2: 21.86 % (2μM); S: 14.48 % (2μM); G1: 71.43 % (4μM); G2: 19.92 % (4μM); S: 8.65 % (4μM)
as §1

PC3 = experiment: MTT assay, antiproliferative activity against PC3 cells; format: cell-based; settings: Homo sapiens, PC-3, 72 h, mean of at least two determinations
Text: (§2) All synthesized target compounds were firstly tested for their antiproliferative activity against five human cancer cell lines, PC3, A549, HCT116, HL60, and KB, using MTT assay.
(§3) Human prostate cancer PC3 cells, lung adenocarcinoma epithelial A549 cells, colon cancer HCT116 cells, promyelocytic leukemia HL60 cells and nasopharyngeal carcinoma KB cells were obtained from the cell bank of the Institute of Biochemistry and Cell Biology, Chinese Academy of Sciences (Shanghai, China). The inhibitory activity of target compounds against tested cancer cell lines was measured using the MTT assay. PC3, A549, HCT116, HL60, and KB cancer cell lines were cultured in RPMI-1640 medium (Invitrogen, Carlsbad, CA, USA) with heat-inactivated 10% fetal bovine serum, penicillin (100 units/mL) and streptomycin (100 µg/mL) and incubated in an atmosphere with 20% oxygen and 5% carbon dioxide at 37°C. All tested compounds were dissolved in DMSO at concentrations of 10.0 mg/mL and diluted to appropriate concentrations. Cells were plated in 96-well plates for 24 h and subsequently treated with different concentrations of all tested compounds for 72 h. Viable cells were determined using 3-(4,5-dimethylthiazol-2-yl)-2,5-diphenyltetrazolium bromide assay kit (MTT, Sigma) according to operation instructions provided by the manufacturer. The concentration of drug causing 50% inhibition in absorbance compared with control cells (IC50) was calculated using the software of dose-effect analysis with microcomputers.

A549 = experiment: MTT assay, antiproliferative activity against A549 cells; format: cell-based; settings: Homo sapiens, 72 h, mean of at least two determinations
Text: as §2, §3

HCT116 = experiment: MTT assay, antiproliferative activity against HCT116 cells; format: cell-based; settings: Homo sapiens, HCT-116, 72 h, mean of at least two determinations
Text: as §2, §3

HL60 = experiment: MTT assay, antiproliferative activity against HL60 cells; format: cell-based; settings: Homo sapiens, HL-60, 72 h, mean of at least two determinations
Text: as §2, §3

KB = experiment: MTT assay, antiproliferative activity against KB cells; format: cell-based; settings: Homo sapiens, 72 h, mean of at least two determinations
Text: as §2, §3

recombinant human PI3Kα = target: T1, recombinant human PI3Kα (Homo sapiens, UniProt P42336); experiment: Competitive fluorescence polarization (FP) assay, inhibition of PI3Kα; format: biochemical; settings: for Binding efficiency index (BEI): BEI = pIC50 (M)/MW (kDa), PI3Kα
T1 construct: purchased Echelon Biosciences (Salt Lake City, UT, USA) E-2000
T1 sequence (P42336 whole entry): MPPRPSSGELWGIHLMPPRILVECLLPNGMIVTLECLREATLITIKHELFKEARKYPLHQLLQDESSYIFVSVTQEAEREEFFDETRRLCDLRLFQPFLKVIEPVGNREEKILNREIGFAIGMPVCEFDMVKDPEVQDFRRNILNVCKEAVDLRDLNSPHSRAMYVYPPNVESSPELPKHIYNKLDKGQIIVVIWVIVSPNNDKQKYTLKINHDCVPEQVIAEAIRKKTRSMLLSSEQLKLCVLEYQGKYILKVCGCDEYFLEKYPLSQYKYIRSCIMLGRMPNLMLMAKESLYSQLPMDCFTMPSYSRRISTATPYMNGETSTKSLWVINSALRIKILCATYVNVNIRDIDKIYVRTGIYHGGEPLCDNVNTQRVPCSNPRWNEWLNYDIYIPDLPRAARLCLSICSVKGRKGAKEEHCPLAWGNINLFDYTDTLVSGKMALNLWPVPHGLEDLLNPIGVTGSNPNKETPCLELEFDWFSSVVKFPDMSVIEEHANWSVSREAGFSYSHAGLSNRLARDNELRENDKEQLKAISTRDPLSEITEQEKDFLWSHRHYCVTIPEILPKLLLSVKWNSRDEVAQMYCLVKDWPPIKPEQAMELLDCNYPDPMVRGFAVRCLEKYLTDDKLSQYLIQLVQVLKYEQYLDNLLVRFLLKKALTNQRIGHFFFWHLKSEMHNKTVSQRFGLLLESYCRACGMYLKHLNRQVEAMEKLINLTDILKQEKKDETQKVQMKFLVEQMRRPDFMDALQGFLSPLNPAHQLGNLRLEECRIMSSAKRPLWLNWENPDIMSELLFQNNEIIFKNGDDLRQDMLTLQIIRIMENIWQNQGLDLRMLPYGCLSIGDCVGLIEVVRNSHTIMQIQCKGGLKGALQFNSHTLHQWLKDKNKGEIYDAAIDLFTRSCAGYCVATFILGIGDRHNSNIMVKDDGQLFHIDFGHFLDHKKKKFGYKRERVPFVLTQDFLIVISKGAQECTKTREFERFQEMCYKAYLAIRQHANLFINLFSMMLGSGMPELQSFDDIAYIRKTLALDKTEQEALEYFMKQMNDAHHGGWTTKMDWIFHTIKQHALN
T1 sequence (P27986 whole entry partner): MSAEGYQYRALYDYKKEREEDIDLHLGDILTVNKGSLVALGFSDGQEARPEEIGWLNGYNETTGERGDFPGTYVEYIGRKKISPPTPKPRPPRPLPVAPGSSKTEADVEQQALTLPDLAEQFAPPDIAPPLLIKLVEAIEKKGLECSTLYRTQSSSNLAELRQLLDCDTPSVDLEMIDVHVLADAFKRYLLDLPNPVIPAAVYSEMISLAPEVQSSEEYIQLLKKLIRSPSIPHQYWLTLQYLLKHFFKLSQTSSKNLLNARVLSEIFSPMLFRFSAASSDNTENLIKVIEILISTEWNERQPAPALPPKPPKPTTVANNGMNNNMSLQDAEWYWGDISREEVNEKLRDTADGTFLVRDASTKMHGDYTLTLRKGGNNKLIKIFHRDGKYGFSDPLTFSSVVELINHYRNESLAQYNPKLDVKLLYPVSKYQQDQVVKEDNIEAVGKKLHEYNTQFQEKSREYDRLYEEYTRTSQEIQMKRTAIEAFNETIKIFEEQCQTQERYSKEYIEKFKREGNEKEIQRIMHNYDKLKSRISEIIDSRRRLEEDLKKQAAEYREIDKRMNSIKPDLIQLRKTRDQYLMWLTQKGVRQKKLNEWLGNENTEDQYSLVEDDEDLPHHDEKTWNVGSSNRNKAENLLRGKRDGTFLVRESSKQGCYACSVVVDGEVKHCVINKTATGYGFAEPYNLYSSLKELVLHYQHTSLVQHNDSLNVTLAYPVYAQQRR
Method: Selected compounds were then tested for their enzymatic inhibitory activity against PI3Kα using a competitive fluorescence polarization (FP) assay to determine the molecular target of synthesized compounds [21].
The PI3Kα inhibitory test was determined using a competitive fluorescence polarization kinase activity assay. PI3K fluorescence polarization assay kit (catalog No. K-1100) and recombinant human PI3Kα (catalog No. E-2000) were purchased from Echelon Biosciences (Salt Lake City, UT, USA). PI3K reactions were performed in 5 mM HEPES, Ph 7, 2.5 mM MgCl2, 10 mM DTT and 50 µM ATP, using diC8-phosphatidylinositol-4, 5-bisphosphate (PIP2) as the substrate, and the final reaction volumes were 10 µL. For evaluation of the PI3Kα inhibitory activity of target compounds, 50 ng enzyme and 10 µM substate were used per 10 µL reaction volume with the concentrations of inhibitors ranging from 3.2 nM to 10 µM. After incubating for 3 h at room temperature, reactions were quenched by adding chelators. A mixture of phosphoinositide binding protein was added and mixed, followed by the addition of a fluorophore-labeled phosphoinositide tracer. Samples were then mixed in 384-well black Corning nonbinding plates (Corning, NY, USA) and incubated in a dark environment for 1 h to equilibrate. Finally, polarization values were measure using red fluorophores with appropriate filters to determine the extent of enzyme activity in the reaction.

[3] = FP assay, 50 µM ATP, mean of at least two determinations

| Compound | pIC50 (PC3) | pIC50 (A549) | pIC50 (HCT116) | pIC50 (HL60) | pIC50 (KB) | pIC50 (recombinant human PI3Kα; [3]) | melting point [°C] | Binding efficiency index (BEI) (recombinant human PI3Kα) | pIC50 (recombinant human PI3Kα; as used for BEI, Table 5) | percent of apoptotic PC3 cells (PC3 cells [1]; 5 µM) [%] | percent of apoptotic PC3 cells (PC3 cells [1]; 10 µM) [%] | percent of cells in G1 (PC3 cells [2]; 2 µM) [%] | percent of cells in G2 (PC3 cells [2]; 2 µM) [%] | percent of cells in S (PC3 cells [2]; 2 µM) [%] | percent of cells in G1 (PC3 cells [2]; 4 µM) [%] | percent of cells in G2 (PC3 cells [2]; 4 µM) [%] | percent of cells in S (PC3 cells [2]; 4 µM) [%] | cell cycle arrest (PC3 cells [2]) |
| --- | --- | --- | --- | --- | --- | --- | --- | --- | --- | --- | --- | --- | --- | --- | --- | --- | --- | --- |
| CS(=O)(=O)N1CCN(Cc2cc3nc(-c4cccc5[nH]ncc45)nc(N4CCOCC4)c3s2)CC1 [GDC0941, 2-(1H-Indazol-4-yl)-6-(4-methanesulfonyl-piperazin-1-ylmethyl)-4-morpholin-4-yl-thieno[3,2-d]pyrimidine, reference compound] |  |  |  |  |  |  |  |  |  | 3.12 | 5.65 | 63.66 | 21.86 | 14.48 | 71.43 | 19.92 | 8.65 | induced cell cycle arrest in G1 phase |
| COc1ccc(S(=O)(=O)c2nc3ccccc3nc2N2CCN(S(C)(=O)=O)CC2)cc1 [Compound 41, 2-(4-(Methylsulfonyl)piperazin-1-yl)-3-(4-methoxyphenylfsulfonyl)quinoxaline] | 5.66 | 5.88 | 6.26 |  |  | 7.62 | 177 to 179 | 16.5 |  | 4.48 | 32.83 | 53.77 | 16.76 | 29.48 | 54.38 | 15.87 | 29.75 | showed similar trend while the percent of cell in G1 phase was smaller |
| CC1CN(c2nc3ccccc3nc2S(=O)(=O)c2ccc(Br)cc2)CCN1 (stereo not shown) [Compound 27, 2-(3-Methylpiperazin-1-yl)-3-(4-bromophenylsulfonyl)quinoxaline] | 6.22 | 6.24 | 6.49 | 6.92 | 5.02 | 7.21 | 158 to 160 | 16.1 | 7.21 |  |  |  |  |  |  |  |  |  |
| Cc1ccc(S(=O)(=O)c2nc3ccccc3nc2N2CCN(C)CC2)cc1 [Compound 15, 2-(4-Methylpiperazin-1-yl)-3-(4-methylphenylsulfonyl)quinoxaline] | 6.08 | 5.62 | 5.77 | 6.16 | 6.33 | < 5.00 | 127 to 130 |  |  |  |  |  |  |  |  |  |  |  |

Second part, led by results:

| pIC50 (PC3) | pIC50 (A549) | pIC50 (HCT116) | pIC50 (HL60) | pIC50 (KB) | pIC50 (recombinant human PI3Kα; [3]) | melting point [°C] | Binding efficiency index (BEI) (recombinant human PI3Kα) | pIC50 (recombinant human PI3Kα; as used for BEI, Table 5) | Compound | percent of apoptotic PC3 cells (PC3 cells [1]; 5 µM) [%] | percent of apoptotic PC3 cells (PC3 cells [1]; 10 µM) [%] | percent of cells in G1 (PC3 cells [2]; 2 µM) [%] | percent of cells in G2 (PC3 cells [2]; 2 µM) [%] | percent of cells in S (PC3 cells [2]; 2 µM) [%] | percent of cells in G1 (PC3 cells [2]; 4 µM) [%] | percent of cells in G2 (PC3 cells [2]; 4 µM) [%] | percent of cells in S (PC3 cells [2]; 4 µM) [%] | cell cycle arrest (PC3 cells [2]) |
| --- | --- | --- | --- | --- | --- | --- | --- | --- | --- | --- | --- | --- | --- | --- | --- | --- | --- | --- |
| 5.30 | 5.28 | 4.37 | 5.14 | 5.91 | < 5.00 | 224 to 226 |  |  | O=C(c1ccccc1)N1CCN(c2nc3ccccc3nc2S(=O)(=O)c2ccccc2)CC1 [Compound 29, 2-(4-Benzoylpiperazin-1-yl)-3-(phenylsulfonyl)quinoxaline] |  |  |  |  |  |  |  |  |  |
| 5.65 | 5.99 | 5.74 | 5.61 | 5.35 | 5.96 | 144 to 146 | 15.1 |  | CC(=O)N1CCN(c2nc3ccccc3nc2S(=O)(=O)c2ccccc2)CC1 [Compound 9, 2-(4-Acetylpiperazin-1-yl)-3-(phenylsulfonyl)quinoxaline] |  |  |  |  |  |  |  |  |  |
| 5.53 | 4.85 | 5.56 | 6.11 | 5.34 | < 5.00 | 154 to 157 |  |  | CN1CCN(c2nc3ccccc3nc2S(=O)(=O)c2ccccc2)CC1 [Compound 14, 2-(4-Methylpiperazin-1-yl)-3-(phenylsulfonyl)quinoxaline] |  |  |  |  |  |  |  |  |  |
| 5.56 | 5.41 | 4.60 | 5.23 | 6.03 | 5.56 | 217 to 219 | 11.3 |  | O=C(c1ccc(Cl)cc1)N1CCN(c2nc3ccccc3nc2S(=O)(=O)c2ccccc2)CC1 [Compound 34, 2-(4-(4-Chlorobenzoyl)piperazin-1-yl)-3-(phenylsulfonyl)quinoxaline] |  |  |  |  |  |  |  |  |  |
